Laboratory results: patent publication US5846566A, “Microcapsules for the controlled release of acetylsalicylic acid in the gastrointestinal environment” (Flamel Technologies, priority 1993, dated 1998)

Columns and labels:
[1] = system: thromboxane; settings: daily dose; very substantially below the minimum percentage; cited from earlier work
[2] = system: vascular prostacycline; settings: daily dose; cited from earlier work
[3] = acute oral toxicity in rats; assay type: in vivo, rat (Sprague-Dawley); settings: rat, in vivo, 14 days
Description: (§1) The microcapsules of aspirin M1 prepared according to Example 1 were subjected to a toxicological study by comparison with commercial aspirin (CA) in the form of a white powder. The acute toxicity of these two pharmaceutical forms of aspirin was evaluated and compared by oral administration to rats.
(§2) Each of the two formulations of the product was administered orally to groups of 10 Sprague-Dawley rats (5 males and 5 females) in a volume of 10 ml/kg and in suspension in 0.5% carboxymethyl cellulose. […] All the animals were placed on a water diet before the treatment.
(§3) The mortality, the general behavior and the weight change of the surviving animals were followed for a period of 14 days after the single administration of the product. An anatomicopathological examination was carried out on each of the animals found dead or sacrificed at the end of the study.
(§4) The LD50 was calculated by Finney's method.

[4] = system: Sprague-Dawley rats; assay: acute oral toxicity in rats; assay type: in vivo, rat (Sprague-Dawley)
Description: as §1, §2, §3, §4

[5] = system: serum thromboxane B2; assay: inhibition of serum thromboxane B2 after repeated administration for 28 days; assay type: in vivo, human; settings: as from the third day of treatment; 320 mg encapsulated or 350 mg control ASA daily
Description: (§5) Twelve healthy male volunteers were assigned to one or other of the following two treatments according to a randomization schedule obtained by drawing lots. Group A received one 320 mg gelatin capsule of encapsulated ASA (microcapsules M1 of Example 1) orally every morning for 28 days. Group B received 350 mg of non-encapsulated control ASA in solution every morning for 28 days.
In both cases, the subjects took the treatments with 200 ml of water.
Samples (5 cl) for measurement of the serum thromboxane B2 were taken before administration of the daily treatment on D1, D2, D3, D4, D5, D14, D21, D27, D28 and D42.
(§6) The aspirin and salicylic acid were analyzed using an HPLC method specially developed for assaying low levels in biological media. The serum thromboxane B2 was analyzed using an enzyme immunoassay method described by […] et al. [Analytical Chemistry 57, 1170-1173 (1985); Ann. Biol. Clin. 43, 475-484 (1985)]. For the urine samples, the 11-dehydrothromboxane B2, dinorthromboxane B2 and dinor-6-ketoprostaglandin F1α were analyzed by the method cited above, with prior extraction in the solid phase and purification by thin layer chromatography. This method was validated by gas chromatography coupled with mass spectrometry using a negative ion ionization detector [LELLOUCHE et al., Prostaglandine 40, 297-310 (1990)].

[6] = system: 11-dehydrothromboxane B2; assay: inhibition of urinary 11-dehydrothromboxane B2, repeated administration; assay type: in vivo, human; settings: 28 days; 320 mg encapsulated or 350 mg control ASA daily
Description: as §5
(§7) During each period, urine samples were taken from each subject for assaying the creatininuria and measuring the platelet and vascular prostaglandins.
(§8) The morning urine was collected at 7 am on days D1, D2, D14, D27 and D28. The subjects were asked to empty their bladder between midnight and 1 am and then not to urinate again until the morning so that the 6-hour urine could be obtained. The morning urination was performed before the subjects got up. Of each sample collected: […]
as §6, with “Biol. Clin. 43, 475-484 (1985)].” left out, “This method was validated by gas chromatography coupled with mass spectrometry using a negative ion ionization detector [LELLOUCHE et al., Prostaglandine 40, 297-310 (1990)].” left out

[7] = system: urinary dinorthromboxane B2; assay: inhibition of urinary dinorthromboxane B2, repeated administration; assay type: in vivo, human; settings: 28 days; 320 mg encapsulated or 350 mg control ASA daily
Description: as §5, §7, §8
as §6, with “Biol. Clin. 43, 475-484 (1985)].” left out, “This method was validated by gas chromatography coupled with mass spectrometry using a negative ion ionization detector [LELLOUCHE et al., Prostaglandine 40, 297-310 (1990)].” left out

[8] = system: prostacycline; assay: inhibition of prostacycline (urinary dinor-6-ketoprostaglandin F1α), repeated administration; assay type: in vivo, human; settings: 28 days; 320 mg encapsulated or 350 mg control ASA daily
Description: as §5, §7, §8
as §6, with “Biol. Clin. 43, 475-484 (1985)].” left out, “This method was validated by gas chromatography coupled with mass spectrometry using a negative ion ionization detector [LELLOUCHE et al., Prostaglandine 40, 297-310 (1990)].” left out

[9] = system: thromboxane B2 of renal origin; assay: urinary excretion of thromboxane B2 (renal origin), repeated administration; assay type: in vivo, human; settings: 28 days; 320 mg encapsulated or 350 mg control ASA daily
Description: as §5, §7
(§9) The morning urine was collected at 7 am on days D1, D2, D14, D27 and D28. The subjects were asked to empty their bladder between midnight and 1 am and then not to urinate again until the morning so that the 6-hour urine could be obtained. The morning urination was performed before the subjects got up. Of each sample collected:
(§10) 40 ml were transferred to two appropriately labeled 20 ml polypropylene tubes, which were then frozen immediately at -20° C.
(§11) Thromboxane B2 and 6-ketoprostaglandin F1α are metabolites of […] of renal origin.

[10] = system: 6-ketoprostaglandin F1α; assay: urinary excretion of 6-ketoprostaglandin F1α (renal origin), repeated administration; assay type: in vivo, human; settings: 28 days; 320 mg encapsulated or 350 mg control ASA daily
Description: as §5, §7, §9, §10, §11

What does the source list for CC(=O)Oc1ccccc1C(=O)O [conventional aspirin, acetylsalicylic acid]?
thromboxane inhibition [1]: < 95%; inhibition of vascular prostacycline [2]: 25%

What does the source list for CC(=O)Oc1ccccc1C(=O)O [CA, acetylsalicylic acid]?
LD50 at 336 h [3]: 1430 mg/kg; autopsy findings ([4]; 740 and 1110 mg/kg): no macroscopic anomalies; autopsy findings ([4]; 1670 and 2500 mg/kg, animals found dead): abnormally blackish coloration of the liver, a discoloration with wall thickening in the digestive tract (intestines and stomach) and reddish petechiae in the stomach; weight change ([4]; CA 740-2500 mg/kg (between day 1 and day 5), CRA 2500 mg/kg (throughout the study)): slight drop in the weight gain, related to the dose administered; general behavior ([4]; CA 740-2500 mg/kg, CRA 2500 mg/kg): a drop in the spontaneous activity, related to the dose administered, and piloerection; LD50, lower limit of the confidence interval ([4]; probability threshold of 95%): 936 mg/kg; LD50, upper limit of the confidence interval ([4]; probability threshold of 95%): 2394 mg/kg

For CC(=O)Oc1ccccc1C(=O)O [control ASA, acetylsalicylic acid], which “inhibition of thromboxane originating from the platelets” value [5] is on record?
The value was 98.15%.

And the “inhibition of urinary metabolite of thromboxane (11-dehydrothromboxane B2, first value pair)” value [6]?
Its value is 75.6%.

And the “inhibition of urinary metabolite of thromboxane (dinorthromboxane B2, second value pair)” value [7]?
The value was 68.9%.

What about the “inhibition of the prostacycline” value [8] of the same compound?
The value was 43.2%.

What about the “inhibition of prostaglandins of renal origin (thromboxane B2, first value pair)” value [9] of the same compound?
Its value is 42.8%.

And the “inhibition of prostaglandins of renal origin (6-ketoprostaglandin F1α, second value pair)” value [10]?
Its value is 34.6%.
